Data on 17 molecules can be found in PMC9482650, “Quantitative fragmentomics allow affinity mapping of interactomes” (Nature Communications, 2022).

Like-named read-outs stand apart in the source and are kept apart here. Numbered stars: 1 amine (or outer) side, 2 acyl side, 3 side chain; on linkers, the order of the positions; unused ones are H or OH. Ends that are not written are not given here. Peptide text beside a SMILES is read from it. * marks the point of attachment. X1 = O=C(CCCC[C@@H]1SC[C@@H]2NC(=O)N[C@@H]21)NCCCOCCOCCOCCCN*; Suc = O=C(CCC(=O)[*:2])[*:1]

One experiment addresses MAGI2_2 PDZ (Homo sapiens, UniProt Q86UL8). Nature of the experiment: Competitive fluorescence polarization (FP) assay. The format is binding. Conditions: read-out: pKd FP (converted). For orientation: In fluorescence polarisation assays a small probe gives low polarisation when free and higher when bound to something large.
The target of a further experiment is DLG4_3 PDZ (Homo sapiens, UniProt P78352). Nature of the experiment: Competitive fluorescence polarization (FP) assay. The format is binding. Conditions: read-out: pKd FP (converted).
A further experiment concerns the target T1, TX1BP3 PDZ (Homo sapiens, UniProt O14907).
T1 sequence (O14907 15-112 limits assumed): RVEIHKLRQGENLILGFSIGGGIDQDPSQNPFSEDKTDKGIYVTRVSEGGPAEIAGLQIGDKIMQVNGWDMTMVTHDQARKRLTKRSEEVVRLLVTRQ
Put plainly: Holdup assay. The format is binding.

The target of the next experiment is SCRIB_1 PDZ (Homo sapiens, UniProt Q14160). Nature of the experiment: Holdup assay. The class given is binding.
Another experiment concerns the target DLG1_2 PDZ (Homo sapiens, UniProt Q12959). Put plainly: Holdup assay. The format is binding.
The next experiment concerns the target T2, SCRIB2 PDZ (Homo sapiens, UniProt Q14160).
T2 sequence (Q14160 862-950 limits assumed): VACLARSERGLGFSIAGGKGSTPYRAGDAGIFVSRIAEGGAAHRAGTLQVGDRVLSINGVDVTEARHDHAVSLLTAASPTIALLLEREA
Put plainly: Holdup assay. The class given is binding.

The target in the next experiment is DLG1_1 PDZ (Homo sapiens, UniProt Q12959). Put plainly: Holdup assay. The format is binding.
The target of another experiment is SNX27 PDZ (Homo sapiens, UniProt Q96L92). Nature of the experiment: Holdup assay. The format is binding.
Another experiment relates to HaCat cell extract preys. Nature of the experiment: PDZ-AP-MS, biotinylated MBP-PDZ baits. The class given is binding, human. The note with it: for Difference log2: enrichment of prey. As to the method:
(§1) For PDZ-AP-MS experiments, PDZ domains were cloned as His6-AviTag-MBP-PDZ constructs. For co-expression with BirA, E. coli BL21(DE3) cells were co-transformed with His6-AviTag-MBP, or His6-AviTag-MBP-PDZ-coding and PET21a-BirA (Addgene #20857) plasmids. Simultaneously to IPTG induction, 50 µM biotin was added to the media. After cell harvesting, the lysis buffer was also supplemented with 50 µM biotin. Otherwise, expression and double affinity purification was identical as previously described in details.
(§2) For PBM-AP-MS experiments, 30 μl streptavidin resin was mixed with biotin or peptide at 50–60 μM concentration in 6–6.5 resin volume for 60 min to achieve resin saturation. For PDZ-AP-MS experiments, 30 μl streptavidin resin was mixed with biotinylated MBP or MBP-PDZ at 40-50 μM concentration in >1000× resin volume for 60 min to achieve resin saturation. After saturation, resins were washed a single time (ten resin volume, holdup buffer), and were depleted with biotin (1 mM biotin, 5–10 resin volume, 10 min). Finally, resins were washed two times. 0.5 ml 2 mg/ml cell lysate was added to the dry resin (1 mg total input) and were incubated at 4 °C for 2 h. Then, the beads were washed three times with 10 resin volume buffer containing: 50 mM TRIS pH 8.5, 150 mM NaCl, 1% TritonX-100, 10× complete EDTA-free protease inhibitor cocktail, 2 mM EDTA, 1 mM TCEP. Then, the beads were washed two times with ten resin volume buffer containing: 50 mM TRIS pH 8.5, 150 mM NaCl, 1 mM TCEP. Finally, captured protein was eluted from the resin in two steps and the eluted fractions were pooled. For each elution the beads were incubated for 30 min with three resin volume buffer containing: 20 mM TRIS pH8.5, 100 mM NaCl, 500 μM TCEP, 8 M Urea. Between each step, the beads were separated by mild centrifugation and the supernatant was removed by gentle pipetting.
(§3) The samples were precipitated with TCA 20% overnight at 4 °C and centrifuged at 14,000 rpm for 10 min at 4 °C. The protein pellets were washed twice with 1 mL cold acetone and air dried. The protein extracts were solubilized in urea 8 M, reduced with 5 mM TCEP for 30 min, and alkylated with 10 mM iodoacetamide for 30 min in the dark. Double digestion was performed at 37 °C with 500 ng endoproteinase Lys-C for 4 h, followed by fourfold dilution and an overnight digestion with 500 ng trypsin. Peptide mixtures were then desalted on C18 spin-column and dried on Speed-Vacuum.
(§4) Samples were analyzed using an Ultimate 3000 nano-RSLC (Thermo Scientific, San Jose California) coupled in line with a LTQ-Orbitrap ELITE mass spectrometer via a nano-electrospray ionization source (Thermo Scientific, San Jose California). Peptide mixtures were injected in 0.1% TFA on a C18 Acclaim PepMap100 trap-column (75 µm ID × 2 cm, 3 µm, 100 Å, Thermo Fisher Scientific) for 3 min at 5 µL/min with 2% ACN, 0.1% FA in H2O and then separated on a C18 Accucore nano-column (75 µm ID × 50 cm, 2.6 µm, 150 Å, Thermo Fisher Scientific) at 220 nl/min and 38 °C with a 90 min linear gradient from 5% to 30% buffer B (A: 0.1% FA in H2O/B: 99% ACN, 0.1% FA in H2O), regeneration at 5% B. The mass spectrometer was operated in positive ionization mode, in data-dependent mode with survey scans from m/z 350–1500 acquired in the Orbitrap at a resolution of 120,000 at m/z 400. The 20 most intense peaks from survey scans were selected for further fragmentation in the Linear Ion Trap with an isolation window of 2.0 Da and were fragmented by CID with normalized collision energy of 35%. (TOP20CID method) Unassigned and single charged states were excluded from fragmentation. The Ion Target Value for the survey scans (in the Orbitrap) and the MS2 mode (in the Linear Ion Trap) were set to 1E6 and 5E3 respectively and the maximum injection time was set to 100 ms for both scan modes. Dynamic exclusion was set to 20 s after one repeat count with mass width at ±10 ppm. […]

A further experiment concerns HeLa cell extract preys. Nature of the experiment: PDZ-AP-MS, biotinylated MBP-PDZ baits. The class given is binding, human. The note with it: for Ratio: fold enrichment of prey; for Difference: log2 enrichment of prey. As to the method:
as §1, §2, §3, §4

For a further experiment, the target named is T3, SYNJ2BP PDZ (Homo sapiens, UniProt P57105).
T3 sequence (P57105 13-100 limits assumed): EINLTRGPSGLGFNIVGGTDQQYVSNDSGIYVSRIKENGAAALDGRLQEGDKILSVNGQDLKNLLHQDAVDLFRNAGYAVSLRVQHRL
Put plainly: Holdup assay. The class given is binding.

The subject of experiment [1] is Jurkat cell extract preys. Nature of the experiment: PDZ-AP-MS, biotinylated MBP-PDZ baits. The format is binding, human. The note with it: for Difference log2: enrichment of prey. As to the method: as §1, §2, §3, §4
Setting [2] is: PBM motif of the named protein vs TX1BP3 PDZ, read-out: pKd values – domain-motif, TX1BP3 (converted).
The mark [3] stands for this setting: PBM motif of the named protein vs SCRIB_1 PDZ, read-out: pKd values – domain-motif, SCRIB_1 (converted).
The mark [4] stands for this setting: PBM motif of the named protein vs DLG1_2 PDZ, read-out: pKd values – domain-motif, DLG1_2 (converted).
The mark [5] stands for this setting: PBM motif of the named protein vs SCRIB_2 PDZ, read-out: pKd values – domain-motif, SCRIB_2 (converted).
Where [6] appears, read: PBM motif of the named protein vs DLG1_1 PDZ, read-out: pKd values – domain-motif, DLG1_1 (converted).
Setting [7] is: bait SCRIB_2 PDZ, fold change of prey.
Where [8] appears, read: holdup affinity of the PBM peptide of the named protein, sheet PBMcomplexome, lower sub-table, 3.5 appears to be the floor for no detectable binding, read-out: affinity of PBM to TX1BP3 (pKd) (converted).
Where [9] appears, read: holdup affinity of the PBM peptide of the named protein, sheet PBMcomplexome, lower sub-table, 3.5 appears to be the floor for no detectable binding, read-out: affinity of PBM to DLG1_2 (pKd) (converted).
Where [10] appears, read: holdup affinity of the PBM peptide of the named protein, sheet PBMcomplexome, lower sub-table.
Where [11] appears, read: bait SCRIB_1 PDZ, fold change of prey.

SCRIB_1 PDZ, sequence (Q14160 728-815 limits assumed): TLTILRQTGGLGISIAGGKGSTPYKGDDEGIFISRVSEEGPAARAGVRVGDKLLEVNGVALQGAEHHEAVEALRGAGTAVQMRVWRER
MAGI2_2 PDZ, sequence (Q86UL8 426-510 limits assumed): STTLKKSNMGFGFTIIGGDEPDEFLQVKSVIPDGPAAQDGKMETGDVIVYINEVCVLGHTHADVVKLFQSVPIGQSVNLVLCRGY
DLG4_3 PDZ, sequence (P78352 313-393 limits assumed): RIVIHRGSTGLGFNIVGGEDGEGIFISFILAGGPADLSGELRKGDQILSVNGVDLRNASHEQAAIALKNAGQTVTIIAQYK

As for `CC(C)C[C@H](NC(=O)[C@H](CCC(N)=O)NC(=O)[C@@H](NC(=O)[C@H](CCC(=O)O)NC(=O)[C@H](CCC(=O)O)NC(=O)[C@H](CCCNC(=N)N)NC(=O)[C@H](CO)NC(=O)[C@H](CC(=O)O)NC(=O)[C@H](CCC(N)=O)NC(=O)CNC(=O)CCC(=O)NCCCOCCOCCOCCCNC(=O)CCCC[C@@H]1SC[C@@H]2NC(=O)N[C@@H]21)[C@@H](C)O)C(=O)O` [KCNT2] ({X1-Suc}-GQDSREETQL-OH), the values for the Kd at MAGI2_2 PDZ and on DLG4_3 PDZ were 248 µM and 241 µM, respectively.

Turning to ATKDKKITTV [EXOC4], the Kd at TX1BP3 PDZ (setting [2]) was 123 µM; on SCRIB_1 PDZ (setting [3]), 141 µM; on DLG1_2 PDZ (setting [4]) it was 1.23 µM; on SCRIB2 PDZ (setting [5]), 324 µM; on DLG1_1 PDZ (setting [6]), 8.91 µM; on SNX27 PDZ, 41.7 µM.

For EKQAKGDTEF [CACYBP], at SNX27 PDZ, the Kd is 209 µM.

EPRS1: the “Difference log2” value in the experiment with HaCat cell extract preys (bait SCRIB_2 PDZ vs MBP) came out at 4.198. In the experiment with HaCat cell extract preys (setting [7]), the “Ratio SCRIB_2/MBP” value was found to be 18.3552.

With GFGEERESIL [KIDINS220], the Kd was 186 µM at TX1BP3 PDZ (setting [8]), 132 µM at DLG1_2 PDZ (setting [9]) and 2.57 µM at SNX27 PDZ (setting [10]).

Consider IDNDTESTAL [ARHGAP17], for which the Kd on SCRIB_1 PDZ (setting [3]) is 12.3 µM; at SCRIB2 PDZ (setting [5]), 245 µM; at SNX27 PDZ, 10.7 µM.

With IQREDQETAV [DGKZ], the Kd at TX1BP3 PDZ (setting [8]) is 66.1 µM; on SCRIB_1 PDZ (holdup affinity of the PBM peptide of the named protein, sheet PBMcomplexome, lower sub-table, 3.5 appears to be the floor for no detectable binding, read-out: affinity of PBM to SCRIB_1 (pKd) (converted)), 19.5 µM; at DLG1_2 PDZ (setting [9]), 6.92 µM; at SCRIB2 PDZ (holdup affinity of the PBM peptide of the named protein, sheet PBMcomplexome, lower sub-table, 3.5 appears to be the floor for no detectable binding, read-out: affinity of PBM to SCRIB_2 (pKd) (converted)), 13.8 µM; at DLG1_1 PDZ (holdup affinity of the PBM peptide of the named protein, sheet PBMcomplexome, lower sub-table, 3.5 appears to be the floor for no detectable binding, read-out: affinity of PBM to DLG1_1 (pKd) (converted)), 18.6 µM; on SNX27 PDZ (setting [10]), 1 µM.

For the molecule KKYVDAETSL [SLC4A7], the Kd at TX1BP3 PDZ (setting [2]) was 151 µM; at SCRIB_1 PDZ (setting [3]), 2.88 µM; at DLG1_2 PDZ (setting [4]) it was 275 µM; at SCRIB2 PDZ (setting [5]), 170 µM; on SNX27 PDZ, 1.95 µM.

Regarding LSEFKAMDSI [CTNNA1], the Kd at TX1BP3 PDZ (setting [2]) is 339 µM.

With PLEC, in the experiment with HeLa cell extract preys (bait TX1BP3 PDZ vs MBP control), the Ratio is listed as 24.4238 and the Difference is recorded as 4.61.

As for QPRTWLQSPV [RTKN], the Kd at TX1BP3 PDZ (setting [2]) is 0.891 µM; at SCRIB_1 PDZ (setting [3]) it was 204 µM; on DLG1_2 PDZ (setting [4]), 50.1 µM; on DLG1_1 PDZ (setting [6]), 182 µM; on SNX27 PDZ it was 49 µM.

The molecule QRQARSETLV [HPV59E6] gave a Kd at SYNJ2BP PDZ of 15.4 µM.

In the case of SCRIB, the results for the “Difference log2” value (in the experiment with HaCat cell extract preys (bait SCRIB_1 PDZ vs MBP); in experiment [1] (bait SCRIB_1 PDZ vs MBP); in [1] (bait SCRIB_2 PDZ vs MBP)) were 13.0145, 8.3787 and 8.333, respectively. For the same molecule, the “Ratio SCRIB_1/MBP” value with HaCat cell extract preys (setting [11]) is 8274.77; in experiment [1] (setting [11]), 332.843. For the same molecule, in the experiment on HeLa cell extract preys (bait SCRIB_2 PDZ (biotinylated MBP-PDZ) vs MBP control), the Difference is given as 6.449. For the same molecule, in the experiment on HeLa cell extract preys (bait SCRIB_2 PDZ vs MBP control), the Ratio was 87.3698. For the same molecule, the “Ratio SCRIB_2/MBP” value in experiment [1] (setting [7]) is on record as 322.542.

With SEKHFRETEV [HTLV1 Tax1], the Kd at SYNJ2BP PDZ was 0.912 µM.

In the case of SRPHTNETSL [MCC], the Kd on TX1BP3 PDZ (setting [2]) is 75.9 µM; on SCRIB_1 PDZ (setting [3]), 5.5 µM; at DLG1_2 PDZ (setting [4]), 64.6 µM; at SCRIB2 PDZ (setting [5]) it was 52.5 µM; on DLG1_1 PDZ (setting [6]), 191 µM; on SNX27 PDZ, 1.91 µM.

Take TVASEKESVM [SLC1A5]: the Kd is 204 µM on TX1BP3 PDZ (setting [2]), 6.31 µM on SCRIB_1 PDZ (setting [3]) and 5.13 µM on SNX27 PDZ.

Consider VKPQVSESKL [ACOT8], for which the Kd at SCRIB_1 PDZ (setting [3]) was 47.9 µM; at SCRIB2 PDZ (setting [5]), 302 µM; at SNX27 PDZ, 4.57 µM.
